What was measured:
[1] = system: ragweed; test: Test A postemergence; format: in vivo, Ambrosia elatior
Outline: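 Greenhouse pot test, loam/sand soil. Formulation: non-phytotoxic solvent mix plus surfactant. Pre: directed spray onto soil after sowing. Post: plants at 1–2 leaf, 2–10 cm. Rated visually vs untreated controls at ~10 d, 0 (no effect) to 100 (complete control).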

[2] = system: sandbur; test: Test E preemergence; format: in vivo, Cenchrus echinatus; settings: for Sandbur plant response rating: scale 0 to 100 (0 no effect, 100 complete control); for Plant response rating, Sandbur: scale 0 to 100, 0 no effect, 100 complete control
Text: (§1) Seeds of plant species selected from corn (Zea mays), soybean (Glycine max), velvetleaf (Abutilon theophrasti), lambsquarters (Chenopodium album), wild poinsettia (Euphorbia heterophylla), palmer pigweed (Amaranthus palmeri), waterhemp (common waterhemp, Amaranthus rudis), surinam grass (Brachiaria decumbens), large (Lg) crabgrass (Digitaria sanguinalis), Brazilian crabgrass (Digitaria horizontalis), fall panicum (Panicum dichotomiflorum), giant foxtail (Setaria faberii), green foxtail (Setaria viridis), goosegrass (Eleusine indica), johnsongrass (Sorghum halepense), ragweed (common ragweed, Ambrosia elatior), barnyardgrass (Echinochloa crus-galli), sandbur (southern sandbur, Cenchrus echinatus), arrowleaf sida (Sida rhombifolia), Italian ryegrass (Lolium multiflorum), dayflower (Virginia (VA) dayflower, Commelina virginica), field bindweed (Convolvulus arvensis), morningglory (Ipomoea coccinea), nightshade (eastern black nightshade, Solanum ptycanthum), kochia (Kochia scoparia), yellow nutsedge (Cyperus esculentus), cocklebur (common cocklebur, Xanthium strumarium), smartweed (ladysthumb smartweed, and hairy beggarticks (Bidens pilosa), were planted into a silt loam soil and treated preemergence with test chemicals formulated in a non-phytotoxic solvent mixture which included a surfactant.
(§2) At the same time, plants from these crop and weed species and also horseweed (Canada horseweed, Conyza canadensis), waterhemp_RES1, (ALS & Triazine resistant common waterhemp, Amaranthus rudis), and waterhemp_RES2, (ALS & HPPD resistant common waterhemp, Amaranthus rudis) were planted in pots containing Redi-Earth® planting medium (Scotts Company, 14111 Scottslawn Road, Marysville, Ohio 43041) comprising spaghnum peat moss, vermiculite, wetting agent and starter nutrients were treated with postemergence applications of test chemicals formulated in the same manner. Plants ranged in height from 2 to 18 cm for postemergence treatments (1- to 4-leaf stage). Treated plants and controls were maintained in a greenhouse for 14 to 21 days, after which time all species were compared to controls and visually evaluated. Plant response ratings, summarized in Table E, are based on a scale of 0 to 100 where 0 is no effect and 100 is complete control. A dash (-) response means no test result.

[3] = system: Italian ryegrass; test: Test E preemergence; format: in vivo, Lolium multiflorum; settings: for Ryegrass, Italian plant response rating: scale 0 to 100 (0 no effect, 100 complete control); for Plant response rating, Ryegrass, Italian: scale 0 to 100, 0 no effect, 100 complete control
Text: as §1, §2

[4] = system: green foxtail; test: Test E preemergence; format: in vivo, Setaria viridis; settings: for Foxtail, Green plant response rating: scale 0 to 100 (0 no effect, 100 complete control); for Plant response rating, Foxtail, Green: scale 0 to 100, 0 no effect, 100 complete control
Text: as §1, §2

[5] = system: giant foxtail; test: Test E preemergence; format: in vivo, Setaria faberii; settings: for Foxtail, Giant plant response rating: scale 0 to 100 (0 no effect, 100 complete control); for Plant response rating, Foxtail, Giant: scale 0 to 100, 0 no effect, 100 complete control
Text: as §1, §2

[6] = system: surinam grass; test: Test E preemergence; format: in vivo, Brachiaria decumbens; settings: for Surinam Grass plant response rating: scale 0 to 100 (0 no effect, 100 complete control); for Plant response rating, Surinam Grass: scale 0 to 100, 0 no effect, 100 complete control
Text: as §1, §2

[7] = system: johnsongrass; test: Test E preemergence; format: in vivo, Sorghum halepense; settings: for Johnsongrass plant response rating: scale 0 to 100 (0 no effect, 100 complete control); for Plant response rating, Johnsongrass: scale 0 to 100, 0 no effect, 100 complete control
Text: as §1, §2

[8] = system: arrowleaf sida; test: Test E preemergence; format: in vivo, Sida rhombifolia; settings: for Arrowleaf Sida plant response rating: scale 0 to 100 (0 no effect, 100 complete control); for Plant response rating, Arrowleaf Sida: scale 0 to 100, 0 no effect, 100 complete control
Text: as §1, §2

[9] = 125 g ai/ha, 0 to 100 scale where 0 is no effect and 100 is complete control
[10] = 500 g ai/ha, 0 to 100 scale where 0 is no effect and 100 is complete control
[11] = 31 g ai/ha, 0 to 100 scale, 0 no effect, 100 complete control

**Q.** With `FCc1cccc(Oc2ncc(Cl)cn2)c1-n1cc(Br)cn1` [Compound 83] as the molecule, how does the “Plant response rating, Ragweed” value [1, 9] read?
**A.** The value was 70.

**Q.** What about the “Plant response rating, Ragweed” value [1, 10] of the same molecule?
**A.** The value was 80.

**Q.** How did the “Plant response rating, Ragweed” value [1, 11] turn out when `Fc1cccc(Oc2ncc(Cl)cn2)c1-n1cc(OCC(F)(F)F)cn1` [Compound 270] was run?
**A.** Its value is 0.

**Q.** What about the “Plant response rating, Ragweed” value ([1]; 125 g ai/ha, 0 to 100 scale, 0 no effect, 100 complete control) of the same molecule?
**A.** The value was 20.

**Q.** What does the source list for `FC(F)(F)Sc1cnn(-c2ccccc2Oc2ncc(Cl)cn2)c1` [Compound 132, 5-chloro-2-[2-[4-(trifluoromethylthio)-1H-pyrazol-1-yl]phenoxy]pyrimidine]?
**A.** Ragweed plant response rating [1, 9]: 10; Plant response rating, Ragweed [1, 10]: 30

**Q.** For `FCc1cccc(Oc2ncc(Br)cn2)c1-n1cc(C(F)(F)F)cn1` [Compound 120], which “Plant response rating, Ragweed” value [1, 11] is on record?
**A.** The value was 30.

**Q.** What does the source list for `FC(F)(F)c1cnn(-c2c(Cl)cccc2Oc2ncc(Cl)cn2)c1` [Compound 167]?
**A.** Sandbur plant response rating ([2]; 31 g ai/ha): 0; Sandbur plant response rating ([2]; 62 g ai/ha): 20; Plant response rating, Sandbur ([2]; 125 g ai/ha): 65; Ryegrass, Italian plant response rating ([3]; 31 g ai/ha): 0; Ryegrass, Italian plant response rating ([3]; 62 g ai/ha): 10; Plant response rating, Ryegrass, Italian ([3]; 125 g ai/ha): 40; Foxtail, Green plant response rating ([4]; 16 g ai/ha): 10; Foxtail, Green plant response rating ([4]; 31 g ai/ha): 35; Foxtail, Green plant response rating ([4]; 62 g ai/ha): 70; Plant response rating, Foxtail, Green ([4]; 125 g ai/ha): 90; Foxtail, Giant plant response rating ([5]; 16 g ai/ha): 0; Foxtail, Giant plant response rating ([5]; 31 g ai/ha): 0; Foxtail, Giant plant response rating ([5]; 62 g ai/ha): 100; Plant response rating, Foxtail, Giant ([5]; 125 g ai/ha): 100; Surinam Grass plant response rating ([6]; 31 g ai/ha): 0; Surinam Grass plant response rating ([6]; 62 g ai/ha): 0; Plant response rating, Surinam Grass ([6]; 125 g ai/ha): 0; Johnsongrass plant response rating ([7]; 31 g ai/ha): 10; Johnsongrass plant response rating ([7]; 62 g ai/ha): 30; Plant response rating, Johnsongrass ([7]; 125 g ai/ha): 70; Arrowleaf Sida plant response rating ([8]; 16 g ai/ha, preemergence): 65; Arrowleaf Sida plant response rating ([8]; 31 g ai/ha, preemergence): 65; Arrowleaf Sida plant response rating ([8]; 62 g ai/ha, preemergence): 100; Plant response rating, Arrowleaf Sida ([8]; preemergence, 125 g ai/ha): 100

**Q.** Which results are given for `CCOc1cn(-c2c(Br)cccc2Oc2ncc(Cl)cn2)nn1` [Compound 84]?
**A.** Plant response rating, Ragweed [1, 9]: 50; Plant response rating, Ragweed [1, 10]: 90

**Q.** What does the source list for `FC(F)(F)c1cnn(-c2ccccc2Oc2ncc(Cl)cn2)c1` [Compound 16]?
**A.** Sandbur plant response rating ([2]; 16 g ai/ha): 0; Sandbur plant response rating ([2]; 31 g ai/ha): 20; Sandbur plant response rating ([2]; 62 g ai/ha): 20; Plant response rating, Sandbur ([2]; 125 g ai/ha): 70; Plant response rating, Sandbur ([2]; 250 g ai/ha): 95; Ryegrass, Italian plant response rating ([3]; 16 g ai/ha): 0; Ryegrass, Italian plant response rating ([3]; 31 g ai/ha): 0; Ryegrass, Italian plant response rating ([3]; 62 g ai/ha): 15; Plant response rating, Ryegrass, Italian ([3]; 125 g ai/ha): 40; Plant response rating, Ryegrass, Italian ([3]; 250 g ai/ha): 75; Foxtail, Green plant response rating ([4]; 16 g ai/ha): 0; Foxtail, Green plant response rating ([4]; 31 g ai/ha): 20; Foxtail, Green plant response rating ([4]; 62 g ai/ha): 70; Plant response rating, Foxtail, Green ([4]; 125 g ai/ha): 90; Plant response rating, Foxtail, Green ([4]; 250 g ai/ha): 100; Foxtail, Giant plant response rating ([5]; 16 g ai/ha): 15; Foxtail, Giant plant response rating ([5]; 31 g ai/ha): 20; Foxtail, Giant plant response rating ([5]; 62 g ai/ha): 100; Plant response rating, Foxtail, Giant ([5]; 125 g ai/ha): 100; Plant response rating, Foxtail, Giant ([5]; 250 g ai/ha): 100; Surinam Grass plant response rating ([6]; 16 g ai/ha): 0; Surinam Grass plant response rating ([6]; 31 g ai/ha): 0; Surinam Grass plant response rating ([6]; 62 g ai/ha): 0; Plant response rating, Surinam Grass ([6]; 125 g ai/ha): 30; Plant response rating, Surinam Grass ([6]; 250 g ai/ha): 50; Johnsongrass plant response rating ([7]; 16 g ai/ha): 0; Johnsongrass plant response rating ([7]; 31 g ai/ha): 0; Johnsongrass plant response rating ([7]; 62 g ai/ha): 0; Plant response rating, Johnsongrass ([7]; 125 g ai/ha): 25; Plant response rating, Johnsongrass ([7]; 250 g ai/ha): 40; Arrowleaf Sida plant response rating ([8]; 16 g ai/ha, preemergence): 5; Arrowleaf Sida plant response rating ([8]; 31 g ai/ha, preemergence): 35; Plant response rating, Arrowleaf Sida ([8]; Preemergence, 62 g ai/ha): 70; Plant response rating, Arrowleaf Sida ([8]; preemergence, 125 g ai/ha): 95; Plant response rating, Arrowleaf Sida ([8]; preemergence, 250 g ai/ha): 98

**Q.** How did the “Ragweed plant response rating” value [1, 9] turn out when `Clc1cnc(Oc2cccc(Br)c2-n2cc(Br)nn2)nc1` [Compound 129] was run?
**A.** Its value is 80.

**Q.** What about the “Plant response rating, Ragweed” value [1, 10] of the same molecule?
**A.** The value was 90.

— US9695155B2, “Herbicidal substituted pyrimidinyloxy benzene compounds” (E. I. DU PONT DE NEMOURS AND COMPANY, priority 2013, dated 2017)
